Assay results taken from US6977262B2, “Dihydropyrazolopyridine compounds and pharmaceutical use thereof” (Mitsubishi Pharma Corporation, priority 2001, dated 2005).
Structures can show the parent of a compound that is named as a salt.

CNCC1=C(C#N)C(c2cccc3nonc23)c2c[nH]nc2N1.O=C(O)C(F)(F)F (stereo not drawn)
melting point: 174 °C

N#CC1=C(C2CCCNC2)Nc2n[nH]cc2C1c1cccc(C#N)c1Br.O=C(O)C(F)(F)F (stereo not drawn)
melting point: 225 °C

N#CC1=C(C2CCCCN2)Nc2n[nH]cc2C1c1cccc(C#N)c1Br.O=C(O)C(F)(F)F (stereo not drawn)
melting point: 232 °C

N#CC1=C(C2CNCCO2)Nc2n[nH]cc2C1c1cccc(C#N)c1Br.O=C(O)C(F)(F)F (stereo not drawn)
melting point: 236 °C

Cl.N#CC1=C(C2CCNCC2)Nc2n[nH]cc2C1c1cccc2nonc12 (stereo not drawn)
melting point: > 270 °C

Cl.N#CC1=C(C2CCNCC2)Nc2n[nH]cc2C1c1cccc(C#N)c1Br (stereo not drawn)
melting point: > 270 °C

Cl.Cl.Cl.N#CC1=C(CN2CCN(c3cccc4ccccc34)CC2)Nc2n[nH]cc2C1c1ccccc1Cl (stereo not drawn)
melting point: 203 to 205 °C (dec.)

CN1CCCN(CC2=C(C#N)C(c3ccccc3Cl)c3c[nH]nc3N2)CC1.Cl.Cl (stereo not drawn)
melting point: 204 to 206 °C (dec.)

Cl.Cl.Cl.N#CC1=C(CN2CCN(c3ccccc3)CC2)Nc2n[nH]cc2C1c1ccccc1Cl (stereo not drawn)
melting point: 217 to 220 °C (dec.)

CCCC1=C([N+](=O)[O-])C(c2ccccc2[N+](=O)[O-])c2c[nH]nc2N1 (stereo not drawn)
melting point: 204 °C

CN1CCCC(C2=C(C#N)C(c3cccc(C#N)c3Br)c3c[nH]nc3N2)C1 (stereo not drawn) (as salt: trifluoroacetate) [Example 1041, 4-(2-Bromo-3-cyanophenyl)-5-cyano-4,7-dihydro-6-(1-methylpiperidin-3-yl)-2H-pyrazolo[3,4-b]pyridine]
melting point: 174 °C

CN1CCOC(C2=C(C#N)C(c3cccc(C#N)c3Br)c3c[nH]nc3N2)C1 (stereo not drawn) (as salt: trifluoroacetate) [Example 1046, 4-(2-Bromo-3-cyanophenyl)-5-cyano-4,7-dihydro-6-(4-methylmorpholin-2-yl)-2H-pyrazolo[3,4-b]pyridine]
melting point: 180 °C

CN1CCC(C2=C(C#N)C(c3ccccc3Cl)c3c[nH]nc3N2)CC1 (stereo not drawn) (as salt: trifluoroacetate) [Example 1056, 4-(2-Chlorophenyl)-5-cyano-4,7-dihydro-6-(1-methylpiperidin-4-yl)-2H-pyrazolo[3,4-b]pyridine]
melting point: > 270 °C

CCCC1=C(C(=O)OCC)C(c2cccc3nonc23)c2c[nH]nc2N1 (single isomer, unassigned; (+)) [Example 116, (+)Ethyl 4-(2,1,3-benzoxadiazol-4-yl)-4,7-dihydro-6-propyl-2H-pyrazolo[3,4-b]pyridine-5-carboxylate]
melting point: 159 °C

CCCC1=C(C(=O)OCC)C(c2cccc3c2OCCC3)c2c[nH]nc2N1 (single isomer, unassigned; (+)) [Example 187, (+)Ethyl 4-(3,4-dihydro-2H-benzopyran-8-yl)-4,7-dihydro-6-propyl-2H-pyrazolo[3,4-b]pyridine-5-carboxylate]
melting point: 159 to 161 °C

CCCC1=C(C(=O)OCC)C(c2cccc3nonc23)c2c[nH]nc2N1 (single isomer, unassigned; (-)) [Example 117, (−)Ethyl 4-(2,1,3-benzoxadiazol-4-yl)-4,7-dihydro-6-propyl-2H-pyrazolo[3,4-b]pyridine-5-carboxylate]
melting point: 160 °C

CCCC1=C(C(=O)OCC)C(c2cccc3c2OCCC3)c2c[nH]nc2N1 (single isomer, unassigned; (-)) [Example 188, (−)Ethyl 4-(3,4-dihydro-2H-benzopyran-8-yl)-4,7-dihydro-6-propyl-2H-pyrazolo[3,4-b]pyridine-5-carboxylate]
melting point: 160 to 161 °C

CCOC(=O)C1=C(C)Nc2n[nH]cc2C1c1ccccc1Cl (stereo not drawn) [Example 1, Ethyl 4-(2-chlorophenyl)-4,7-dihydro-6-methyl-2H-pyrazolo[3,4-b]pyridine-5-carboxylate]
melting point: 217 to 221 °C

CCOC(=O)C1=C(C)Nc2n[nH]cc2C1c1ccccc1OC (stereo not drawn) [Example 2, Ethyl 4,7-dihydro-4-(2-methoxyphenyl)-6-methyl-2H-pyrazolo[3,4-b]pyridine-5-carboxylate]
melting point: 196 to 200 °C

CCOC(=O)C1=C(C)Nc2n[nH]cc2C1c1ccccc1C(F)(F)F (stereo not drawn) [Example 3, Ethyl 4,7-dihydro-6-methyl-4-(2-trifluoromethylphenyl)-2H-pyrazolo[3,4-b]pyridine-5-carboxylate]
melting point: 259 to 262 °C

COC(=O)C1=C(C)Nc2n[nH]cc2C1c1ccccc1Cl (stereo not drawn) [Example 4, Methyl 4-(2-chlorophenyl)-4,7-dihydro-6-methyl-2H-pyrazolo[3,4-b]pyridine-5-carboxylate]
melting point: 235 °C

CC1=C(C(=O)OC(C)(C)C)C(c2ccccc2Cl)c2c[nH]nc2N1 (stereo not drawn) [Example 5, t-Butyl 4-(2-chlorophenyl)-4,7-dihydro-6-methyl-2H-pyrazolo[3,4-b]pyridine-5-carboxylate]
melting point: 207 °C

CC1=C(C(=O)OCc2ccccc2)C(c2ccccc2Cl)c2c[nH]nc2N1 (stereo not drawn) [Example 7, Benzyl 4-(2-chlorophenyl)-4,7-dihydro-6-methyl-2H-pyrazolo[3,4-b]pyridine-5-carboxylate]
melting point: 234 °C

CC1=C(C(=O)N(C)C)C(c2ccccc2Cl)c2c[nH]nc2N1 (stereo not drawn) [Example 8, 4-(2-Chlorophenyl)-5-dimethylaminocarbonyl-4,7-dihydro-6-methyl-2H-pyrazolo[3,4-b]pyridine]
melting point: 229 °C

CC1=C(C(=O)NN)C(c2ccccc2Cl)c2c[nH]nc2N1 (stereo not drawn) [Example 9, 4-(2-Chlorophenyl)-5-hydrazinocarbonyl-4,7-dihydro-6-methyl-2H-pyrazolo[3,4-b]pyridine]
melting point: 220 °C

CCOC(=O)C1=C(C(F)(F)F)Nc2n[nH]cc2C1c1ccccc1 (stereo not drawn) [Example 12, Ethyl 4,7-dihydro-4-phenyl-6-trifluoromethyl-2H-pyrazolo[3,4-b]pyridine-5-carboxylate]
melting point: 110 to 115 °C

CCOC(=O)C1=C(C(F)(F)F)Nc2n[nH]cc2C1c1ccccc1F (stereo not drawn) [Example 13, Ethyl 4-(2-fluorophenyl)-4,7-dihydro-6-trifluoromethyl-2H-pyrazolo[3,4-b]pyridine-5-carboxylate]
melting point: 119 to 120 °C

CCOC(=O)C1=C(C(F)(F)F)Nc2n[nH]cc2C1c1ccccc1Cl.O=C(O)/C=C\C(=O)O (stereo not drawn) [Example 14, Ethyl 4-(2-chlorophenyl)-4,7-dihydro-6-trifluoromethyl-2H-pyrazolo[3,4-b]pyridine-5-carboxylate maleate]
melting point: 171 to 172 °C

CCOC(=O)C1=C(C(F)(F)F)Nc2n[nH]cc2C1c1ccccc1OC (stereo not drawn) [Example 15, Ethyl 4,7-dihydro-4-(2-methoxyphenyl)-6-trifluoromethyl-2H-pyrazolo[3,4-b]pyridine-5-carboxylate]
melting point: 144 to 146 °C

CCOC(=O)C1=C(C(F)(F)F)Nc2n[nH]cc2C1c1ccccc1C(F)(F)F (stereo not drawn) [Example 16, Ethyl 4,7-dihydro-6-trifluoromethyl-4-(2-trifluoromethylphenyl)-2H-pyrazolo[3,4-b]pyridine-5-carboxylate]
melting point: 182 to 186 °C

CCOC(=O)C1=C(C(F)(F)F)Nc2n[nH]cc2C1c1cccc(Cl)c1 (stereo not drawn) [Example 17, Ethyl 4-(3-chlorophenyl)-4,7-dihydro-6-trifluoromethyl-2H-pyrazolo[3,4-b]pyridine-5-carboxylate]
melting point: 144 to 145 °C

CCOC(=O)C1=C(C(F)(F)F)Nc2n[nH]cc2C1c1ccc(Cl)cc1 (stereo not drawn) [Example 18, Ethyl 4-(4-chlorophenyl)-4,7-dihydro-6-trifluoromethyl-2H-pyrazolo[3,4-b]pyridine-5-carboxylate]
melting point: 176 to 178 °C

CCOC(=O)C1=C(C(F)(F)F)Nc2n[nH]cc2C1c1ccc(OC)cc1 (stereo not drawn) [Example 19, Ethyl 4,7-dihydro-4-(4-methoxyphenyl)-6-trifluoromethyl-2H-pyrazolo[3,4-b]pyridine-5-carboxylate]
melting point: 159 to 161 °C

CCOC(=O)C1=C(C(F)(F)F)Nc2n[nH]cc2C1c1ccc(C(=O)OCC)cc1 (stereo not drawn) [Example 20, Ethyl 4-(4-ethoxycarbonylphenyl)-4,7-dihydro-6-trifluoromethyl-2H-pyrazolo[3,4-b]pyridine-5-carboxylate]
melting point: 157 to 160 °C

CCOC(=O)C1=C(C(F)(F)F)Nc2n[nH]c(C)c2C1c1ccccc1Cl (stereo not drawn) [Example 21, Ethyl 4-(2-chlorophenyl)-4,7-dihydro-3-methyl-6-trifluoromethyl-2H-pyrazolo[3,4-b]pyridine-5-carboxylate]
melting point: 165 to 168 °C

CCOC(=O)C1=C(C(F)(F)F)Nc2n[nH]cc2C1c1cccs1 (stereo not drawn) [Example 22, Ethyl 4,7-dihydro-4-(thiophen-2-yl)-6-trifluoromethyl-2H-pyrazolo[3,4-b]pyridine-5-carboxylate]
melting point: 157 to 161 °C

CCOC(=O)C1=C(C(F)(F)F)Nc2n[nH]cc2C1c1ccsc1 (stereo not drawn) [Example 23, Ethyl 4,7-dihydro-4-(thiophen-3-yl)-6-trifluoromethyl-2H-pyrazolo[3,4-b]pyridine-5-carboxylate]
melting point: 140 to 145 °C

CCOC(=O)C1=C(C(F)(F)F)Nc2n[nH]cc2C1c1cccc2ccccc12 (stereo not drawn) [Example 24, Ethyl 4,7-dihydro-4-(1-naphthyl)-6-trifluoromethyl-2H-pyrazolo[3,4-b]pyridine-5-carboxylate]
melting point: 119 to 120 °C

CCCC1=C(C(=O)OCC)C(c2ccccc2)c2c[nH]nc2N1.O=C(O)/C=C\C(=O)O (stereo not drawn) [Example 25, Ethyl 4,7-dihydro-4-phenyl-6-propyl-2H-pyrazolo[3,4-b]pyridine-5-carboxylate maleate]
melting point: 139 to 141 °C

CCCC1=C(C(=O)OCC)C(c2ccccc2F)c2c[nH]nc2N1 (stereo not drawn) [Example 26, Ethyl 4-(2-fluorophenyl)-4,7-dihydro-6-propyl-2H-pyrazolo[3,4-b]pyridine-5-carboxylate]
melting point: 192 to 194 °C

CCCC1=C(C(=O)OCC)C(c2ccccc2Cl)c2c[nH]nc2N1 (stereo not drawn) [Example 27, Ethyl 4-(2-chlorophenyl)-4,7-dihydro-6-propyl-2H-pyrazolo[3,4-b]pyridine-5-carboxylate]
melting point: 202 to 205 °C

CCCC1=C(C(=O)OC)C(c2ccccc2Cl)c2c[nH]nc2N1 (stereo not drawn) [Example 28, Methyl 4-(2-chlorophenyl)-4,7-dihydro-6-propyl-2H-pyrazolo[3,4-b]pyridine-5-carboxylate]
melting point: 203 to 207 °C
